Structures can show the parent of a compound that is named as a salt.

One test concerns the target T1, human renin (Homo sapiens, UniProt P00797).
T1 construct: taking the active type (67-406); made in house
T1 sequence (P00797 67-406): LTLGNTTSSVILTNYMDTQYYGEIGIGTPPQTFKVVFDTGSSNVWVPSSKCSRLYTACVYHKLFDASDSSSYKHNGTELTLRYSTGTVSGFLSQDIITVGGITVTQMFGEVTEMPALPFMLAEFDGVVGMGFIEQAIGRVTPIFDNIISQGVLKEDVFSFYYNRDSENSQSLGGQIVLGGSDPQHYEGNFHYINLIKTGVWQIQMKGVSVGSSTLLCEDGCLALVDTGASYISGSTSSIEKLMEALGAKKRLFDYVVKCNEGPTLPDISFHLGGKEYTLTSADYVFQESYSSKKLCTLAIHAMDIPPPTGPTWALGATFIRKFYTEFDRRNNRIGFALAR
Put plainly: Measurement of renin inhibition value - B (angiotensinogen substrate, angiotensin I EIA). The following applies: 1 μM test compound, pH 7.4, 37° C., 30 min. The class given is biochemical. On the procedure:
After the reaction, 0.4 ml of immobilized trypsin inhibitor (Pierce Biotechnology, Inc.) was added to remove the trypsin used in the activation by adsorption. The reaction liquid containing the active type renin was concentrated using Vivaspin 20 (molecular weight cut off 10,000, Vivascience, Inc.), and was diluted with 20 mM Tris-hydrochloric acid (pH 8.0).
(5) Purification of Angiotensinogen
After transfection of the plasmid DNA, the cells were subjected to shaking culture under the conditions of 37° C., 8% CO2 and 125 rpm for 3 days. A 600-ml aliquot of the culture medium was centrifuged at 2,000 rpm for 10 min to recover the culture supernatant containing angiotensinogen. To the culture supernatant was added ammonium sulfate (30% saturated concentration), and the mixture was thoroughly stirred and centrifuged at 8,000 rpm for 20 min. The obtained supernatant was added to TOYO Pearl butyl 650M (2×5 cm, Tosoh Corporation) equilibrated with 50 mM tris-hydrochloric acid (pH 8.0) containing 30% saturated ammonium sulfate, at a flow rate of 25 ml/min to allow adsorption. After washing with equilibration buffer, angiotensinogen was eluted by linear concentration gradient from the buffer used for equilibration to 20 mM tris-hydrochloric acid (pH 8.0). The eluate containing angiotensinogen was applied to repeated concentration and dilution using Vivaspin 20 (molecular weight cut off 10,000, Vivascience, Inc.), and the buffer was changed to 20 mM tris-hydrochloric acid (pH 8.0). The eluate was fed to a 6-ml RESOURCE Q column (Amersham Biosciences, Inc.) equilibrated with 20 mM Tris-hydrochloric acid (pH 8.0) containing 50 mM sodium chloride at a flow rate of 6 ml/min to adsorb the angiotensinogen. After washing the column with the buffer solution used in the equilibration, elution was carried out by means of a linear concentration gradient of sodium chloride from 50 mM to 400 mM. The fractions containing angiotensinogen were collected and concentrated using Vivaspin 20 (molecular weight cut off 10,000, Vivascience, Inc.) to a volume of about 2 ml.
(7) Measurement of Renin Inhibition Value—B
As a substrate for renin activity measurement, the angiotensinogen mentioned in (5) above was used. 1 μeach of the test compound (containing 100% DMSO) was added to each well of a 384-well plate (ABgene). Renin was diluted with a buffer solution for reaction (20 mM sodium phosphate (pH 7.4)) to a concentration of 57 pM, and 14 μl each of the dilution was added to each well. The dilution was left to stand at 37° C. for 10 min, and then 5 μl of each of a 6 μM solution of substrate angiotensinogen was added to each well to initiate the reaction. […] The amount of angiotensin I produced by an enzyme reaction was quantified by Enzyme immunoassay (EIA) described below.
Anti-angiotensin I antibody (Peninsula Laboratories Inc.) diluted 5,000-fold with PBS was added to each well of a 384 well black plate (Nalge Nunc International Co., Ltd.) by 25 μl, and left standing overnight at 4° C. to immobilize the antibody in the plate. The antibody solution was removed, PBS solution (100 μl) containing 1% BSA was added to each well, and the mixture was left standing at room temperature for 2 hr for blocking. The blocking solution was removed, and each well was washed 5 times with 100 μl of 0.05% Tween20-PBS. […] Then, a biotinated angiotensin I solution (AnaSpec, 15 μl) prepared to 1.6 nM with a buffer [20 mM tris-hydrochloric acid (pH 7.4), 150 mM sodium chloride, 0.01% BSA, 0.05% Tween20] was added to each well, mixed with a plate mixer and left standing at room temperature for 1 hr.
As for `COCCCNc1nc(C(C)(C)C)ncc1C(=O)N(CC(C)C)[C@@H]1CNC[C@H](C(=O)N2CCOCC2)C1.O=C(O)/C=C/C(=O)O` [Example 207, 2-tert-butyl-4-[(3-methoxypropyl)amino]-N-(2-methylpropyl)-N-[(3S,5R)-5-(morpholin-4-ylcarbonyl)piperidin-3-yl]pyrimidine-5-carboxamide monofumarate], the “human renin inhibitory activity: inhibitory activity (%) at 1 μM” value is recorded as 98%.

The same test, now with this note: 1 μM test compound, pH 7.4, 37° C., 30 min, read-out: human renin inhibitory activity: inhibitory activity (%) at 1 μM.
For the compound `CC(C)CN(C(=O)c1cnc(C(C)(C)C)nc1NCc1ncco1)[C@@H]1CNC[C@H](C(=O)N2CCOCC2)C1` [Example 109, 2-tert-butyl-N-(2-methylpropyl)-N-[(3S,5R)-5-(morpholin-4-ylcarbonyl)piperidin-3-yl]-4-[(1,3-oxazol-2-ylmethyl)amino]pyrimidine-5-carboxamide sulfate], the inhibition at 1 µM is 98%.
For `CNCC1CCN(C(=O)c2cnc(C(C)C)nc2NCc2ccco2)CC1` [Example 63, N-(2-furylmethyl)-2-isopropyl-5-({4-[(methylamino)methyl]piperidin-1-yl}carbonyl)pyrimidin-4-amine], the inhibition at 1 µM is 54%.
For `COCCCNc1nc(C(C)(C)C)ncc1C(=O)N(CC(C)C)[C@@H]1CNC[C@H](C(=O)OC)C1` [Example 96, methyl (3R,5S)-5-[({2-tert-butyl-4-[(3-methoxypropyl)amino]pyrimidin-5-yl}carbonyl)(isobutyl)amino]piperidine-3-carboxylate dihydrochloride], the inhibition at 1 µM stood at 97%.
For `CC(C)CN(C(=O)c1cnc(C(C)(C)C)nc1NCc1ccco1)[C@@H]1CNC[C@H](C(N)=O)C1` (relative stereo) [Example 93, N-[(3R*,5S*)-5-(aminocarbonyl)piperidin-3-yl]-2-tert-butyl-4-[(2-furylmethyl)amino]-N-isobutylpyrimidine-5-carboxamide dihydrochloride], the inhibition at 1 µM worked out at 97%.
On to `CC(C)CN(C(=O)c1cnc(C(C)(C)C)nc1NCc1ccco1)[C@@H]1CNC[C@H](C(N)=O)C1` [Example 132, 2-tert-butyl-N-[(3S,5R)-5-carbamoylpiperidin-3-yl]-4-[(furan-2-ylmethyl)amino]-N-(2-methylpropyl)pyrimidine-5-carboxamide dihydrochloride], for which the inhibition at 1 µM is 98%.
With `CC(C)CN(C(=O)c1cnc(C(C)(C)C)nc1NCc1ccco1)[C@@H]1CNC[C@H](C(=O)N2CCC(C)(O)CC2)C1` (relative stereo) [Example 94, 2-tert-butyl-4-[(2-furylmethyl)amino]-N-{(3R*,5S*)-5-[(4-hydroxy-4-methylpiperidin-1-yl)carbonyl]piperidin-3-yl}-N-isobutylpyrimidine-5-carboxamide dihydrochloride], the inhibition at 1 µM worked out at 97%.
On to `CC(C)CN(C(=O)c1cnc(C(C)(C)C)nc1NCc1ccco1)[C@@H]1CNC[C@H](C(C)(C)O)C1` (relative stereo) [Example 95, 2-tert-butyl-4-[(2-furylmethyl)amino]-N-[(3R*,5S*)-5-(1-hydroxy-1-methylethyl)piperidin-3-yl]-N-isobutylpyrimidine-5-carboxamide dihydrochloride], for which the inhibition at 1 µM turned out to be 97%.
As for `COC(=O)[C@H]1CNC[C@@H](N(CC(C)C)C(=O)c2cnc(C(C)(C)C)nc2NCc2ccccc2)C1` (relative stereo) [Example 99, methyl (3R*,5S*)-5-[{[4-(benzylamino)-2-tert-butylpyrimidin-5-yl]carbonyl}(isobutyl)amino]piperidine-3-carboxylate], the inhibition at 1 µM stood at 97%.
With `COC(=O)[C@H]1CNC[C@@H](N(CC(C)C)C(=O)c2cnc(C(C)(C)C)nc2NCCCSC)C1` (relative stereo) [Example 98, methyl (3R*,5S*)-5-[[(2-tert-butyl-4-{[3-(methylthio)propyl]amino}pyrimidin-5-yl)carbonyl](isobutyl)amino]piperidine-3-carboxylate], the inhibition at 1 µM stood at 97%.
Still for that read-out and setting: the figure for `CNCC1CCN(C(=O)c2cnc(C(C)(C)C)nc2NCc2ccco2)CC1` [Example 59, 2-tert-butyl-N-(2-furylmethyl)-5-({4-[(methylamino)methyl]piperidin-1-yl}carbonyl)pyrimidin-4-amine dihydrochloride] is 86%; for `CCC1CCCCN1C(=O)c1cnc(C(C)(C)C)nc1NCc1ccco1` (centres unmarked) [Example 21, 2-tert-butyl-5-[(2-ethylpiperidin-1-yl)carbonyl]-N-(2-furylmethyl)pyrimidin-4-amine] it is 58%; for `CC(C)(C)c1ncc(C(=O)N2CCC(CN)CC2)c(NCc2ccco2)n1` [Example 58, 5-{[4-(aminomethyl)piperidin-1-yl]carbonyl}-2-tert-butyl-N-(2-furylmethyl)pyrimidin-4-amine dihydrochloride] it is 82%.

Staying with this test, now noted: pH 7.4, 1 μM test compound, pH 7.4, 37° C., 30 min, read-out: human renin inhibitory activity: inhibitory activity (%) at 1 μM.
Take `COCCCNc1nc(C(C)(C)C)ncc1C(=O)N(CC(C)C)[C@@H]1CNC[C@H](C(=O)N2CCOCC2)C1` [Example 97, 2-tert-butyl-4-[(3-methoxypropyl)amino]-N-(2-methylpropyl)-N-[(3S,5R)-5-(morpholin-4-ylcarbonyl)piperidin-3-yl]pyrimidine-5-carboxamide dihydrochloride]: the inhibition at 1 µM was 97%.
